From article PMC12188521 (RSC Advances, 2025)

Experiments:
[1] = molecular target: acetylcholinesterase (AChE) (Homo sapiens, UniProt P22303); assay: biochemical
[2] = molecular target: butyrylcholinesterase (BuChE) (Homo sapiens, UniProt P06276); assay: In vitro butyrylcholinesterase inhibitory activity; type: biochemical
Chain of butyrylcholinesterase (BuChE) (P06276 29-602): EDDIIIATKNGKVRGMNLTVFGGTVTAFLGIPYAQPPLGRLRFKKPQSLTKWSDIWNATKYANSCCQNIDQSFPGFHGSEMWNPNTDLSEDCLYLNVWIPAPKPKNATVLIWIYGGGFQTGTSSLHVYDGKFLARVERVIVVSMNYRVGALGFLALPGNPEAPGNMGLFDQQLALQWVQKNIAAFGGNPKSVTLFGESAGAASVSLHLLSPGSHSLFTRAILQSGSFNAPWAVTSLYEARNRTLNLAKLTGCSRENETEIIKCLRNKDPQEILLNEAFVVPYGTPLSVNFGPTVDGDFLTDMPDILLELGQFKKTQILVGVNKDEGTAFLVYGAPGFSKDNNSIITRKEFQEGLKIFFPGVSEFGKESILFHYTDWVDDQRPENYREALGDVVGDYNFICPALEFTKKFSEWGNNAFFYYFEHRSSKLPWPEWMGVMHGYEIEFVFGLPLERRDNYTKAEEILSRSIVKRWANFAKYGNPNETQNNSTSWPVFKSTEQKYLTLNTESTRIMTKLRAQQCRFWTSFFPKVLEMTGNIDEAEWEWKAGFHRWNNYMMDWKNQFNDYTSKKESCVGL

Chain of acetylcholinesterase (AChE) (P22303 32-614, species assumed): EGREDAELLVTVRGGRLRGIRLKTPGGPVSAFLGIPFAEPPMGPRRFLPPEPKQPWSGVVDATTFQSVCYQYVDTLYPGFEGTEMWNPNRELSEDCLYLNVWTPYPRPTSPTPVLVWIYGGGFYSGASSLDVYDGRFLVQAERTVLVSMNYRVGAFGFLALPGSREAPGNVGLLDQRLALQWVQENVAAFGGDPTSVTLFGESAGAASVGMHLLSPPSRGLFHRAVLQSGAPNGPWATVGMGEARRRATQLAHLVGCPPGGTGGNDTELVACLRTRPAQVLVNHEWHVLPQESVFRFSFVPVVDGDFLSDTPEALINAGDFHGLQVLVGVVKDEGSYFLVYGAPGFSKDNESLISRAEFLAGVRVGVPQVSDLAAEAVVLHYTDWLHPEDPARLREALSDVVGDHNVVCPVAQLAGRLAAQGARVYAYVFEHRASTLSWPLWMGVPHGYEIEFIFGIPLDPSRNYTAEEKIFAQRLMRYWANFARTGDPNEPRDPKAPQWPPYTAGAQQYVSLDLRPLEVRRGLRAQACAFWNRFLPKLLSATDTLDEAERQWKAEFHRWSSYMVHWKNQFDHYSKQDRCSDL

Compound | IC50 [1] [µM] | IC50 [2] [µM]
COc1ccc(C=NN=C(C)c2ccc(OCc3ccc(Br)cc3)cc2)cc1 [Compound 2f, 1-(1-(4-((4-Bromobenzyl)oxy)phenyl)ethylidene)-2-(4-methoxybenzylidene)hydrazine] | 48.37 ± 0.06 | 76.3 ± 1.17
CCN(CC)c1ccc(C=NN=C(C)c2ccc(OCc3ccc(Br)cc3)cc2)cc1 [Compound 2a, 4-(((1-(4-((4-bromobenzyl)oxy)phenyl)ethylidene)hydrazineylidene)methyl)-N,N-diethylaniline] | 44.36 ± 0.33 | 77.9 ± 1.46
CC(=NN=Cc1ccc(Cl)cc1)c1ccc(OCc2ccc(Br)cc2)cc1 [Compound 2d, 1-(1-(4-((4-Bromobenzyl)oxy)phenyl)ethylidene)-2-(4-chlorobenzylidene)hydrazine] | 139 ± 2.33 | 161.8 ± 0.07
CC(=NN=Cc1ccc(C)o1)c1ccc(OCc2ccc(Br)cc2)cc1 [Compound 2e, 1-(1-(4-((4-Bromobenzyl)oxy)phenyl)ethylidene)-2-((5-methylfuran-2-yl)methylene) hydrazine] | 98.21 ± 0.01 | 136 ± 2.61
CC(=NN=Cc1cccc2ccccc12)c1ccc(OCc2ccc(Br)cc2)cc1 [Compound 2h, 1-(1-(4-((4-Bromobenzyl)oxy)phenyl)ethylidene)-2-(naphthalen-1-ylmethylene)hydrazine] | 128.2 ± 0.98 | 166.3 ± 1.2
CC(=NN=Cc1ccc(Br)cc1F)c1ccc(OCc2ccc(Br)cc2)cc1 [Compound 2c, 1-(4-Bromo-2-fluorobenzylidene)-2-(1-(4-((4-bromobenzyl)oxy)phenyl)ethylidene)hydrazine] | 150 ± 2.26 | 175 ± 2.96
COc1cccc(C=NN=C(C)c2ccc(OCc3ccc(Br)cc3)cc2)c1O [Compound 2b, 2-(((1-(4-((4-Bromobenzyl)oxy)phenyl)ethylidene)hydrazono)methyl)-6-methoxyphenol] | 18.6 ± 0.21 | 35.31 ± 0.01
CC(=NN=Cc1ccc(C=O)cc1)c1ccc(OCc2ccc(Br)cc2)cc1 [Compound 2i, 4-(((1-(4-((4-Bromobenzyl)oxy)phenyl)ethylidene)hydrazono)methyl)benzaldehyde] | 141.8 ± 0.77 | 177 ± 3.53
CC(=NN=Cc1ccc(C)cc1)c1ccc(OCc2ccc(Br)cc2)cc1 [Compound 2g, 1-(1-(4-((4-Bromobenzyl)oxy)phenyl)ethylidene)-2-(4-methylbenzylidene)hydrazine] | 62.28 ± 0.42 | 98.7 ± 1.18
